Key:
[1] = test system: collagen type II induced arthritis; experiment: Collagen-induced arthritis, Example 2B: limb involvement; assay type: in vivo, mouse; details: 2 mg/kg body weight i.p.
Method: (§1) Male DBA/1 mice were immunized intradermally with 100 μg of bovine type II collagen emulsified in complete Freund's adjuvant (Difco Laboratories, East Molsey, UK). The mean day of onset of arthritis was approximately one month after immunization. After the onset of clinically evident arthritis (erythema and/or swelling), mice were injected intraperitoneally with therapeutic agents. Arthritis was monitored for clinical score and paw swelling (measured with calipers) for 10 days, after which the mice were sacrificed and joints were processed for histology. Sera were collected for analysis on day 10. Therapeutic agents were administered on day 1 (onset), day 4 and day 7. The therapeutic agents included TNF receptor/IgG fusion protein (p55-sf2), anti-TNF antibody, anti-CD4 antibody, and methylprednisolone acetate.
Using the Experimental Procedure described above, groups of mice were subjected to treatment with TNF receptor/IgG protein (2 μg) (18 mice), TNF receptor/IgG protein (20 μg) (18 mice), TNF receptor/IgG protein (100 μg) (12 mice), anti-TNF monoclonal antibody (mAb) (300 μg) (17 mice), methylprednisolone acetate (6 mice), an irrelevant human IgG1 monoclonal antibody (mAb) (6 mice), or saline (control). The TNF receptor/IgG fusion protein, herein referred to as p55-sf2, (Butler et al., Cytokine (in press): (1994), was provided by Centocor, Inc., Malvern Pa.; it is dimeric and consists of the human p55 TNF receptor (extracellular domains) fused to a partial J sequence followed by the whole of the constant region of the hunan IgG1 heavy chain, itself associated with the constant region of a kappa light chain. The […] antibody was TN3-19.12, a neutralizing hamster IgG1 anti-TNFα/β monoclonal antibody (Sheehan, K. C. et al., J. Immunology 142:3884-3893 (1989)), and was provided by R. Schreiber, Washington University Medical School (St. Louis, Mo., USA), in conjunction with Celltech (Slough, UK). […]

[2] = test system: collagen type II induced arthritis; experiment: Collagen-induced arthritis, Example 2B: histology of PIP joints; assay type: in vivo, mouse; details: 2 mg/kg body weight i.p.
Method: as §1
Using the Experimental Procedure described above, groups of mice were subjected to treatment with TNF receptor/IgG protein (2 μg) (18 mice), TNF receptor/IgG protein (20 μg) (18 mice), TNF receptor/IgG protein (100 μg) (12 mice), anti-TNF monoclonal antibody (mAb) (300 μg) (17 mice), methylprednisolone acetate (6 mice), an irrelevant human IgG1 monoclonal antibody (mAb) (6 mice), or saline (control). […]

CC(=O)OCC(=O)[C@@]1(O)CC[C@H]2[C@@H]3C[C@H](C)C4=CC(=O)C=C[C@]4(C)[C@H]3[C@@H](O)C[C@@]21C [Methylprednisolone acetate, methylprednisolone acetate]
Increase (%) in limbs affected [1]: 33% | Limbs Affected (mean ± SEM) Day 1 ([1]; Day 1): 1.00 ± 0.00 | Limbs Affected (mean ± SEM) Day 10 ([1]; Day 10): 1.50 ± 0.22 | PIP Joints with Erosions (%) [2]: (67%) | PIP Joints with Erosions (number/total) [2]: 4/6
